Calls of active or inactive are those of the source. No cut-off for these calls is given here.
Assays:
[1] = molecular target: T1, Peroxisome proliferator-activated receptor alpha (Homo sapiens, UniProt Q07869); test: Displacement of [3H2]nTZD3 from human recombinant GST-fused PPARalpha expressed in Escherichia coli by scintillation proximity assay
T1 sequence (Q07869 whole entry): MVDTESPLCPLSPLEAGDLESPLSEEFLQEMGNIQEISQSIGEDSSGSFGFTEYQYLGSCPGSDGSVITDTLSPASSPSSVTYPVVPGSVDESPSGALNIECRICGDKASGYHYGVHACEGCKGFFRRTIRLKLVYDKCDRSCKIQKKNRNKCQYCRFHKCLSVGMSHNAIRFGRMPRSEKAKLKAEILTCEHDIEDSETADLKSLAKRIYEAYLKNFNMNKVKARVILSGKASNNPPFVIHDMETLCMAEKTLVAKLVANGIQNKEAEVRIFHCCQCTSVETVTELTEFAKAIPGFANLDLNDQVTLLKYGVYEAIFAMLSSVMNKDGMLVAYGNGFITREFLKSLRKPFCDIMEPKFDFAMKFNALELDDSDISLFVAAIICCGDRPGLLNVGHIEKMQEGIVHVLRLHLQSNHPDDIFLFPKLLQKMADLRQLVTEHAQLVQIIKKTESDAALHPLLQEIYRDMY

[2] = Terminal half life in dog; assay type: ADME, organism-based, Canis lupus familiaris; conditions: in vivo, read-out: beta t1/2 (converted)
[3] = Volume of distribution at steady state in dog; assay type: ADME, organism-based, Canis lupus familiaris; conditions: in vivo, read-out: Vdss
[4] = Volume of distribution at steady state in rat; assay type: ADME, organism-based; conditions: in vivo, read-out: Vdss
[5] = test system: Mus musculus; test: Antihyperglycemic activity in db/db mouse assessed as reduction in blood glucose level at 30 mg/kg, po administered once daily for 11 days; assay type: functional; design: scale not given: the % may be the effect or the level left
[6] = test system: Plasma; test: Protein binding in rat plasma assessed per mg of protein; assay type: ADME, cell-free
[7] = test system: Rattus norvegicus; test: Antidiabetic activity in obese insulin-resistant Zucker fa/fa rat assessed as decrease in plasma triglyceride level at 3 to 150 mg/kg, po once daily for 7 days; assay type: functional, organism-based
[8] = Inhibition of CYP450; assay type: ADME
[9] = molecular target: T2, Peroxisome proliferator-activated receptor alpha (Homo sapiens) (UniProt Q07869); test: Agonist activity at human recombinant PPARalpha expressed in COS1 cells coexpressing GAL4 assessed as transcriptional activity at 3000 nM after 48 hrs by luciferase reporter gene assay; assay type: functional, cell-based; conditions: COS-1
T2 sequence (whole entry): T1 sequence (Q07869 whole entry)

[10] = test system: Rattus norvegicus; test: Toxicity in Sprague-Dawley rat assessed as heart weight at 300 mg/kg dosed daily for 2 weeks; assay type: organism-based; design: dose 300 mg/kg; conditions: in vivo, 336 h
[11] = molecular target: T3, Peroxisome proliferator-activated receptor delta (Homo sapiens) (UniProt Q03181); test: Displacement of [3H2]nTZD4 from human recombinant GST-fused PPARdelta expressed in Escherichia coli at 10 uM by scintillation proximity assay
T3 sequence (whole entry): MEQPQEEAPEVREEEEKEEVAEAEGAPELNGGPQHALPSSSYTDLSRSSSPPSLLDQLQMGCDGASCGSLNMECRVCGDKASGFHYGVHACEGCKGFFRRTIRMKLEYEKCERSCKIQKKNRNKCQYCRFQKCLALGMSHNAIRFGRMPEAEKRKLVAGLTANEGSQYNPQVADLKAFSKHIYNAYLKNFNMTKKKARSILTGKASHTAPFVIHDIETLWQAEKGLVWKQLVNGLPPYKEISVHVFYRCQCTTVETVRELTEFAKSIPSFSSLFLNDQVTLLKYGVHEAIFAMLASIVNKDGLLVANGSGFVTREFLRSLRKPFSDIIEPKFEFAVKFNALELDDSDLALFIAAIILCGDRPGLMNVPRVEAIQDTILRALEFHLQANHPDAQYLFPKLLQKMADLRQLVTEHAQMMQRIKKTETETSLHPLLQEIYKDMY

[12] = test system: Rattus norvegicus; test: Toxicity in obese insulin-resistant Zucker fa/fa rat assessed as increase in plasma volume at 100 mg/kg, po once daily for 7 days by Evans blue dye dilution technique; conditions: in vivo, 168 h
[13] = test system: Rattus norvegicus; test: Toxicity in obese insulin-resistant Zucker fa/fa rat assessed as increase in plasma volume at 30 mg/kg, po once daily for 7 days by Evans blue dye dilution technique; assay type: organism-based; design: dose 30 mg/kg, route oral; conditions: in vivo, 168 h
[14] = Agonist activity at hamster PPARalpha; assay type: functional, Cricetinae; conditions: read-out: EC50
[15] = Plasma clearance in dog; assay type: ADME, organism-based, Canis lupus familiaris
[16] = molecular target: T4, Peroxisome proliferator-activated receptor alpha (Canis lupus familiaris) (UniProt Q95N78); test: Agonist activity at dog PPARalpha at 3000 nM; assay type: functional
T4 sequence (whole entry): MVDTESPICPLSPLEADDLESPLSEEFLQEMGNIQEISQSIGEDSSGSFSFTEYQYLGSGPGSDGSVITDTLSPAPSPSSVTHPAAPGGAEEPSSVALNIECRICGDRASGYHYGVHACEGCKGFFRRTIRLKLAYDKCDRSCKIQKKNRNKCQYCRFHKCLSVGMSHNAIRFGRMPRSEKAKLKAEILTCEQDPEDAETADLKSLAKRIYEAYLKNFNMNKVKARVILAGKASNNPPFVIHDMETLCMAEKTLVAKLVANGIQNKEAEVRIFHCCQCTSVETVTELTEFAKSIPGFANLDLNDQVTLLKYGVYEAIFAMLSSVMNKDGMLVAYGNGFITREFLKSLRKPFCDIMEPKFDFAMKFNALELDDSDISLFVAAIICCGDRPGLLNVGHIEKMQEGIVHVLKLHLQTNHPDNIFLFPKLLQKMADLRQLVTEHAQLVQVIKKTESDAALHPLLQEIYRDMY

[17] = test system: Liver; test: Protein binding in rat liver assessed per mg of protein; assay type: ADME, tissue-based
[18] = Oral bioavailability in monkey; assay type: ADME, organism-based, Macaca mulatta; conditions: rhesus monkey, in vivo
[19] = test system: Rattus norvegicus; test: Antidiabetic activity in obese insulin-resistant Zucker fa/fa rat assessed as decrease in plasma insulin level at 3 to 150 mg/kg, po once daily for 7 days; assay type: functional, organism-based
[20] = test system: Rattus norvegicus; test: Antidiabetic activity in obese insulin-resistant Zucker fa/fa rat assessed as decrease in plasma free fatty acid level at 3 to 150 mg/kg, po once daily for 7 days; assay type: functional, organism-based
[21] = test system: Rattus norvegicus; test: Toxicity in Sprague-Dawley rat assessed as liver weight at 300 mg/kg dosed daily for 2 weeks; assay type: organism-based; design: dose 300 mg/kg; conditions: in vivo, 336 h
[22] = molecular target: T5, Peroxisome proliferator-activated receptor alpha (Mus musculus) (UniProt P23204); test: Agonist activity at mouse PPARalpha at 3000 nM; assay type: functional
T5 sequence (whole entry): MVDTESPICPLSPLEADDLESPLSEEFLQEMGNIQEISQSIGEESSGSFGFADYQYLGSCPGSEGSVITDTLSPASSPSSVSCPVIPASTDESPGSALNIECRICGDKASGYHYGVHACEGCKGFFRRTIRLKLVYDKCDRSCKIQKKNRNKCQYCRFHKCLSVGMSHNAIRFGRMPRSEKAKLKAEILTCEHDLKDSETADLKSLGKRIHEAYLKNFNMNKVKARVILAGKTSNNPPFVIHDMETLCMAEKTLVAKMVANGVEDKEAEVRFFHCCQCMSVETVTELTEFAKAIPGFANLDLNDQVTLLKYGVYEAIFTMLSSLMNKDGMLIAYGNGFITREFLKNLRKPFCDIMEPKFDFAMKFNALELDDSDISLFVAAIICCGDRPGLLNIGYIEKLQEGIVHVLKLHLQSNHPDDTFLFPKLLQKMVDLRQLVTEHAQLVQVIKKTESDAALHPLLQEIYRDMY

[23] = Plasma clearance in rat; assay type: ADME, organism-based

With `CC[C@@H](Oc1cccc(-n2c(C)c(C(=O)c3ccc(OC)cc3)c3ccc(OC(F)(F)F)cc32)c1)C(=O)O` [MK-0533] the IC50 [1] was > 50 µM, the half-life [2] was 216 min and the Vd [3] was 1.4 L/kg. For the same compound, the Vd [4] was 1.4 L/kg, the Activity [5] was 83% and the PPB [6] was < 10 pmol. For the same compound, the Activity [7] was “Active”, the INH [8] was > 10 µM and the Activity [9] was 33%. The Activity [10] was 1.1 g, the Activity [11] was “inactive” and the Activity [12] was “Toxic”. The Activity [13] was “Non-toxic”, the EC50 [14] was 330 nM and the clearance [15] was 7.5 mL/min/kg. The Activity [16] was 35%, the PB [17] was < 10 pmol and the bioavailability [18] was 25%. The Activity [19] was “Active”, the Activity [20] was “Active” and the Activity [21] was 19.7 g. The Activity [22] was 53% and the clearance [23] was 18.3 mL/min/kg.
